Each block holds one compound with its values, some of them ahead of it.
How the values were obtained:
[1] = target: T1, Inhibitor of nuclear factor kappa-B kinase subunit beta (Homo sapiens) (UniProt O14920); details: at 10 µM
T1 sequence (whole entry): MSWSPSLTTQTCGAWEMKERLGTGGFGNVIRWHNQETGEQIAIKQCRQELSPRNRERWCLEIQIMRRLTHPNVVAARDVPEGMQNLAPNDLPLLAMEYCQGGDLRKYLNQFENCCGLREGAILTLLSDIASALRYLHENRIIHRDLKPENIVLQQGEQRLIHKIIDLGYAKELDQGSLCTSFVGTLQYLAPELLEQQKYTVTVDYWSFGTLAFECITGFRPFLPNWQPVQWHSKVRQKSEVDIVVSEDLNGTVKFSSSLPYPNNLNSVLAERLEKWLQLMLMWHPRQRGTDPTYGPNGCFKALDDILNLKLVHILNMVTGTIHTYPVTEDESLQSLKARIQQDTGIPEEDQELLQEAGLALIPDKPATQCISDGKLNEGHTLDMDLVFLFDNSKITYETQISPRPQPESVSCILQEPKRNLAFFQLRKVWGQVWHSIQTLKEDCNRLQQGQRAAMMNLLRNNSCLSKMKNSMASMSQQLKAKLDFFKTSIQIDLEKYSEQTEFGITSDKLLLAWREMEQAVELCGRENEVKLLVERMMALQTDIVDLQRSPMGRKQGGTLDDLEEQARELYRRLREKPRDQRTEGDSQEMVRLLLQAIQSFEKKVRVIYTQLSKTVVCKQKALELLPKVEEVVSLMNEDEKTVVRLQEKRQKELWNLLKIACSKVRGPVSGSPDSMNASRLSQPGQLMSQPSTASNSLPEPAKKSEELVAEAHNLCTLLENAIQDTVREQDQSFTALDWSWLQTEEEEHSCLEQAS

[2] = target: Protein kinase C delta type (Homo sapiens) (UniProt Q05655); experiment: Selectivity interaction (Ambit KINOMEscan and KiNATiv profiling in Jurkat cells) EUB0000090b PRKCD; assay type: cell-based; details: at 1 µM
[3] = target: Serine/threonine-protein kinase B-raf (Homo sapiens) (UniProt P15056); experiment: Selectivity interaction (Kinase panel (Invitrogen)) EUB0000639a BRAF; details: at 200 nM
Sequence of Serine/threonine-protein kinase B-raf (Homo sapiens) (P15056 whole entry): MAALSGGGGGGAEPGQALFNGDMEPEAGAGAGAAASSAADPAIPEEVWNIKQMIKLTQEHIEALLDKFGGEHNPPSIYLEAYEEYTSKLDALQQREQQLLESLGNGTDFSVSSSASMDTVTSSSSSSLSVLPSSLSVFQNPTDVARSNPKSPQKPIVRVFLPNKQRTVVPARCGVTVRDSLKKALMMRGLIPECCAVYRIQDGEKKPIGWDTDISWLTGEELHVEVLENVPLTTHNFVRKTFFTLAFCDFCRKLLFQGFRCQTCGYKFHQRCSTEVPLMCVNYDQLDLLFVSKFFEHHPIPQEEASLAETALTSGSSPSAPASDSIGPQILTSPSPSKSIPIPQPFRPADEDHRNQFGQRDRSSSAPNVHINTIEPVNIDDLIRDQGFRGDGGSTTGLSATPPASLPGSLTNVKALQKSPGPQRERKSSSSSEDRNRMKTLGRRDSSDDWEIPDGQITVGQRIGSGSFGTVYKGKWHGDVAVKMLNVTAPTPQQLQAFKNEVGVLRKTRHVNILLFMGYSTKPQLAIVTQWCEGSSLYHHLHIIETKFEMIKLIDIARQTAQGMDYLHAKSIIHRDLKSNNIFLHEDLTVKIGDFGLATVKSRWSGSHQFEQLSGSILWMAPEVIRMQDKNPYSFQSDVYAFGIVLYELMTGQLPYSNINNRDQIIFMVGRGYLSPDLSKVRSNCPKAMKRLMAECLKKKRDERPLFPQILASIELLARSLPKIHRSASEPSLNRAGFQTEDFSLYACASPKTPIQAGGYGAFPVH

[4] = target: Tyrosine-protein kinase BTK (Homo sapiens, UniProt Q06187); experiment: Selectivity interaction (ActivX KiNativ screen (kinase selectivity in THP-1 cell lysates)) EUB0000639a BTK; assay type: subcellular; details: lysate, at 5 µM
Sequence of Tyrosine-protein kinase BTK (Q06187 whole entry): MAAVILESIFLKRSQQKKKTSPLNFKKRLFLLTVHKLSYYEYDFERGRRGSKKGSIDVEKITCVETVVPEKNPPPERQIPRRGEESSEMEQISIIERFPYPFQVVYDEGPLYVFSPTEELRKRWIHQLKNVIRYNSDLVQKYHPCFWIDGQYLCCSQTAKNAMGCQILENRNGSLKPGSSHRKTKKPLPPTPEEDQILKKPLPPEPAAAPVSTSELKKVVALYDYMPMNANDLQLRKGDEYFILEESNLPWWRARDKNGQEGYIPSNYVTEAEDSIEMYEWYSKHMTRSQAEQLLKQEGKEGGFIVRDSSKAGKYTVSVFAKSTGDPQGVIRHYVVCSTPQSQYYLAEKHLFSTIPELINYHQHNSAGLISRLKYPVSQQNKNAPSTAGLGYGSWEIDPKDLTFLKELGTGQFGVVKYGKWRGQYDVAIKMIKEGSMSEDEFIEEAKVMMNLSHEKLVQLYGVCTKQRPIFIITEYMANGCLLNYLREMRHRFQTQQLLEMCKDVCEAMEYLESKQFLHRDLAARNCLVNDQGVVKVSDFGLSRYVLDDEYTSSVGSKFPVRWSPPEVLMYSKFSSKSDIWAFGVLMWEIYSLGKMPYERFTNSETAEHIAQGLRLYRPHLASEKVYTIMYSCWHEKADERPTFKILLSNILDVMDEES

[5] = target: Type-1 angiotensin II receptor (Homo sapiens, UniProt P30556); experiment: Selectivity interaction (Angiotensin II AT1 receptor binding assay, human recombinant ) EUB0000877a AGTR1
Sequence of Type-1 angiotensin II receptor (P30556 whole entry): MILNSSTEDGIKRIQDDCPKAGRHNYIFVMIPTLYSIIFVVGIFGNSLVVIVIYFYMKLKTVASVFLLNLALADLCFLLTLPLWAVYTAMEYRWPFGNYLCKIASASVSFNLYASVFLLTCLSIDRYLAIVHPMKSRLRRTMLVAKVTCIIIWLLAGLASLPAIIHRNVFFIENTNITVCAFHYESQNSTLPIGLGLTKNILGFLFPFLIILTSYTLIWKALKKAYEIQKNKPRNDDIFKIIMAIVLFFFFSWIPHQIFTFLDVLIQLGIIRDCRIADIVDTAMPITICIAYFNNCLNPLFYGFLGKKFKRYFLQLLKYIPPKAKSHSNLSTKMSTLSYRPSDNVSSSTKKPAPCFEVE

[6] = target: Serine/threonine-protein kinase B-raf (Homo sapiens) (UniProt P15056); experiment: Selectivity interaction (LanthaScreen Eu Kinase Binding Assay) EUB0001632a BRAF; details: at 10 µM
[7] = target: T2, Ephrin type-B receptor 3 (Homo sapiens) (UniProt P54753); details: at 10 µM
T2 sequence (whole entry): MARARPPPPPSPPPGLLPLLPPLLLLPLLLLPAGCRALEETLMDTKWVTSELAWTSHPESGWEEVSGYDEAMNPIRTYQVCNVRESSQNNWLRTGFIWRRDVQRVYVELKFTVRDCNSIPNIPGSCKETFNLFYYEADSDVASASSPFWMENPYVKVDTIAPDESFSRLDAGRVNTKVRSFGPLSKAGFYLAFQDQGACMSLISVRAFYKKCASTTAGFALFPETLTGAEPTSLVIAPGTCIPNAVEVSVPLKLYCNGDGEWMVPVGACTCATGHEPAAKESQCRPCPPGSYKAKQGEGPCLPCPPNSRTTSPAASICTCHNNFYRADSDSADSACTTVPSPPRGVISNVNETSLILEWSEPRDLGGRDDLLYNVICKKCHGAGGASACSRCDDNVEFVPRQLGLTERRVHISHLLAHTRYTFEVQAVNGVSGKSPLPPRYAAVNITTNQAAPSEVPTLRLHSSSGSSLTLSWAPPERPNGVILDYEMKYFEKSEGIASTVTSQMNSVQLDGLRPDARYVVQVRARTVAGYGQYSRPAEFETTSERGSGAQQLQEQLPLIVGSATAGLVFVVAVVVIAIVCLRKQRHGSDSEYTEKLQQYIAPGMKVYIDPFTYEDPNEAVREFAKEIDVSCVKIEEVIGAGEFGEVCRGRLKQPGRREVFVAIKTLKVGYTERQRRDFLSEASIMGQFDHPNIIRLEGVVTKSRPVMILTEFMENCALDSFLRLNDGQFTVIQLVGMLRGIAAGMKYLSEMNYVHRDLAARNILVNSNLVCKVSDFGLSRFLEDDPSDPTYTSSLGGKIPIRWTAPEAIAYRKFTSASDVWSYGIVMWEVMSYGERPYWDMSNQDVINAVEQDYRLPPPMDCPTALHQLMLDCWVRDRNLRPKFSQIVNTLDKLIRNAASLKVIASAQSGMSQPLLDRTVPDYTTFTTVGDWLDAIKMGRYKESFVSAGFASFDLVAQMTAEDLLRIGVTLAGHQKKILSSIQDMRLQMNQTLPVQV

[8] = target: BMP-2-inducible protein kinase (Homo sapiens) (UniProt Q9NSY1); experiment: Selectivity interaction (KinomeScan (DiscoverX)) EUB0001079a BMP2K; details: at 1 µM
Misshapen-like kinase 1 = Misshapen-like kinase 1 (Homo sapiens, UniProt Q8N4C8); experiment: Selectivity interaction (ActivX KiNativ screen (ex vivo kinase selectivity in human PBMCs)) EUB0001619a MINK1; assay type: cell-based; details: PBMC, at 1 µM
[9] = target: Proto-oncogene tyrosine-protein kinase ROS (Homo sapiens) (UniProt P08922); experiment: Selectivity interaction (KinomeScan (DiscoverX)) EUB0001619a ROS1; details: at 1 µM
Sequence of Proto-oncogene tyrosine-protein kinase ROS (Homo sapiens) (P08922 whole entry): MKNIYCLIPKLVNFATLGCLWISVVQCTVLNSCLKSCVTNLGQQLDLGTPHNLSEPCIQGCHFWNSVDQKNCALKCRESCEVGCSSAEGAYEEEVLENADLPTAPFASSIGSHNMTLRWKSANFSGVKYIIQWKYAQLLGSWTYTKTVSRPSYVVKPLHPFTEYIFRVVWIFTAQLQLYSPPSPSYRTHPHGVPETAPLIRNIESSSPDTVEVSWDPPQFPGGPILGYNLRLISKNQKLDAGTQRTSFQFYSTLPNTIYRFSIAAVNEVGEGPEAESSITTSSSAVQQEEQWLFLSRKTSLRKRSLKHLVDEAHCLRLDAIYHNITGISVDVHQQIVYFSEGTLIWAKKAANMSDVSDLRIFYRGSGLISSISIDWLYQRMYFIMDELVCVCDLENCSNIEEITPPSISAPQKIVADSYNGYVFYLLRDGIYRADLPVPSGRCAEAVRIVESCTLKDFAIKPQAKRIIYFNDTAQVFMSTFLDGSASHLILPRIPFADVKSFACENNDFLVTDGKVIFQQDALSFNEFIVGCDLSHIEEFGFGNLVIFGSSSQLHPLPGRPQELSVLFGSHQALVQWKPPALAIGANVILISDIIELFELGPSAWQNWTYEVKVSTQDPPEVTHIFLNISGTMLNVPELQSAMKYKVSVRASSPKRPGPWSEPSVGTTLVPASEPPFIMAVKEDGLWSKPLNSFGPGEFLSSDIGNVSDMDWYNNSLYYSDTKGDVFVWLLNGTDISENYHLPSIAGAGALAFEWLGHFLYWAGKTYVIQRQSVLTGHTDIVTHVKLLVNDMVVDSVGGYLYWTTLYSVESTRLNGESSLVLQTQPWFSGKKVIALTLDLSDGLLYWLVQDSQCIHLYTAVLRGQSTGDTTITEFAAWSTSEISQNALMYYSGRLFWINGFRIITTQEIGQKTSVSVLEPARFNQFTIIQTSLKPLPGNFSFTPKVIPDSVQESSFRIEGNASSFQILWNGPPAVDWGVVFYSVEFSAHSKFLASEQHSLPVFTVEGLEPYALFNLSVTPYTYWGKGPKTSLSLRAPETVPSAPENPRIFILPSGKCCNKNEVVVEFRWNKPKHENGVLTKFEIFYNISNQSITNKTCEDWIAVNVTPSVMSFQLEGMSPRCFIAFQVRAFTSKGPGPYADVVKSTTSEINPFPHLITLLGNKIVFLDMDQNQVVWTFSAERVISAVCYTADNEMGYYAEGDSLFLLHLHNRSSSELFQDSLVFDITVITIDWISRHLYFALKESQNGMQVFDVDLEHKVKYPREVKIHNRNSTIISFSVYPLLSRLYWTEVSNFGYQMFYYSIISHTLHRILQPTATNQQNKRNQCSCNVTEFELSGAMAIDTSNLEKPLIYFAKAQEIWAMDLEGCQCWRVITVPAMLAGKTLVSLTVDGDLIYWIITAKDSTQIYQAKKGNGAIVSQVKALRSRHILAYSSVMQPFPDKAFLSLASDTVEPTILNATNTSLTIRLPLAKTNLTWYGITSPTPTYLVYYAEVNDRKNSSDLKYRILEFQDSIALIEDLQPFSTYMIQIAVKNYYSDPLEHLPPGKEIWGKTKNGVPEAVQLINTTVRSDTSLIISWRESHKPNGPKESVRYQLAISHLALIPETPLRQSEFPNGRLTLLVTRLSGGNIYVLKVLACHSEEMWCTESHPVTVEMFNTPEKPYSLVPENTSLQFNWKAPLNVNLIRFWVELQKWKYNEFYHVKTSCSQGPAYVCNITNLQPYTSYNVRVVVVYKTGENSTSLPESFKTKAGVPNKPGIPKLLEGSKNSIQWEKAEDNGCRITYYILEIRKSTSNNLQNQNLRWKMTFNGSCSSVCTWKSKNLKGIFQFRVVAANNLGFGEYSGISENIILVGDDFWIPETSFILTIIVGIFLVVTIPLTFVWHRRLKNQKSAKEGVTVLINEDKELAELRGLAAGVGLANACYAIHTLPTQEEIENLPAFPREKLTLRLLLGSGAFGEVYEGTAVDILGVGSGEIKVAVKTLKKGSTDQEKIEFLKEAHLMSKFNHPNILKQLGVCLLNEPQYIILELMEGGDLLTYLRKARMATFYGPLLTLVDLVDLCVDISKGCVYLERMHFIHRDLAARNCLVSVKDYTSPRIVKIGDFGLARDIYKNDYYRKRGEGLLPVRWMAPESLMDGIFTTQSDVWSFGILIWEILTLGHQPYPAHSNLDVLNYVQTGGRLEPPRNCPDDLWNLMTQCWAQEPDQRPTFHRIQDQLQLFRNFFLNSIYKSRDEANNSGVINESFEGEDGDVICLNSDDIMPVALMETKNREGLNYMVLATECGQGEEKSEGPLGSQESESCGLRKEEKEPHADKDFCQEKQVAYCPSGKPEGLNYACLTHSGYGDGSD

[10] = target: T3, Serine/threonine-protein kinase 3 (Homo sapiens) (UniProt Q13188); experiment: Selectivity interaction (SelectScreen profiling (Invitrogen)) EUB0000607a STK3; details: at 2 µM
T3 sequence (whole entry): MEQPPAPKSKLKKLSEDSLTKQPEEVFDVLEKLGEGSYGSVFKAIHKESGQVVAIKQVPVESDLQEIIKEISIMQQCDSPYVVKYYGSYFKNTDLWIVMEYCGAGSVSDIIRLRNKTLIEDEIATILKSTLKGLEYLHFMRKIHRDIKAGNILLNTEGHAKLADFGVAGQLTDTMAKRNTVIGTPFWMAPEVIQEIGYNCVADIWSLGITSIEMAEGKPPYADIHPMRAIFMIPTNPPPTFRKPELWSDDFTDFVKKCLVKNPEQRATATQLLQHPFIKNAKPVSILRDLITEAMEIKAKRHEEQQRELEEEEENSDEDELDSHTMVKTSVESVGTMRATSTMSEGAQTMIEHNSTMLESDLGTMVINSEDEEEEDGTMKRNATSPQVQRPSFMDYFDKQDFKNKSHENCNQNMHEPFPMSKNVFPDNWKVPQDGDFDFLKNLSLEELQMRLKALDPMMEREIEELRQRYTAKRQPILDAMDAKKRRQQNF

[11] = target: Serine/threonine-protein kinase SBK1 (Homo sapiens) (UniProt Q52WX2); experiment: Selectivity interaction (KinomeScan (DiscoverX)) EUB0000666a SBK1; details: at 10 µM
Sequence of Serine/threonine-protein kinase SBK1 (Homo sapiens) (Q52WX2 whole entry): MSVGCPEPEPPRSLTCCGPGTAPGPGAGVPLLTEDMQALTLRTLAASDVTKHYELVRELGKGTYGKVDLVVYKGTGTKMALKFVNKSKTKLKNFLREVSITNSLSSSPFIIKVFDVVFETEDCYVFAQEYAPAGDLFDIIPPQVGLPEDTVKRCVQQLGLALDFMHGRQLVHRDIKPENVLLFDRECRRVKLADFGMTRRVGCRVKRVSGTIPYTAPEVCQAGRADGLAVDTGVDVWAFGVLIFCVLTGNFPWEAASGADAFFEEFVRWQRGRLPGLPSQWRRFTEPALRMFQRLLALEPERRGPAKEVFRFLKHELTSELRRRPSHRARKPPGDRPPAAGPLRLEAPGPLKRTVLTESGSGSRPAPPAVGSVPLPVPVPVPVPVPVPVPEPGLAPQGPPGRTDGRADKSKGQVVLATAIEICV

Compound: Cc1cc([C@@H](C)Nc2ccccc2C(=O)O)c2nc(N3CCOCC3)cc(=O)n2c1 [AZD-6482]
% of control [1]: 90%

Compound: CN(C)C/C=C/C(=O)Nc1ccc(C(=O)N2CCCC(Nc3ncc(Cl)c(-c4c[nH]c5ccccc45)n3)C2)cc1 (configuration not stated)
% of control [2]: 75%

% of inhibition [3]: 8.97% | % of inhibition [4]: -7%
Compound: CC[C@@H]1[C@H](F)C(=O)N[C@@H]1COc1nccc2cc(C(N)=O)c(OC)cc12 [ZIMLOVISERTIB]

IC50 [5]: > 30 µM
Compound: CCC(=O)N1CC[C@H](Nc2ncnc3c2CN(c2cnc(OC)c(C(F)(F)F)c2)CC3)C1 [LENIOLISIB]

% of inhibition [6]: 5.68%
Compound: Cn1cc(-n2cnc3c(NCc4nc5cc(Cl)c(Cl)cc5[nH]4)nc(N4CCOCC4)nc32)cn1

% of control [7]: 100%
Compound: CCN(CC)CCCCNc1ncc2cc(-c3cc(OC)cc(OC)c3)c(NC(=O)NC(C)(C)C)nc2n1

Compound: Nc1cnc(N2CCc3cc(S(=O)(=O)Nc4c(F)cc(Cl)cc4F)cc(N4CCCC4=O)c32)nc1 [TP-020n]
% of control [8]: 88%

Compound: N#Cc1cccc(-c2c[nH]c3ncnc(N4CCOCC4)c23)c1
% of inhibition (Misshapen-like kinase 1): 15% | % of control [9]: 90%

Compound: CNC(=O)Nc1ccc(-c2nc(N3CC4CCC(C3)O4)c3cnn(C4CCC5(CC4)OCCO5)c3n2)cc1
% of inhibition [10]: 0%

Compound: O=C(NOC[C@H](O)CO)c1ccc(F)c(F)c1Nc1ccc(I)cc1F
% of control [11]: 100%

Source: ChEMBL document CHEMBL5465560, “Selectivity Literature for EUbOPEN Chemogenomic Library” (2024)
